Test results reported in ChEMBL document CHEMBL1128609, “Chemical synthesis and biological evaluation of 1d-1,2,4,5-InsP4 and its 3-fluorinated counterpart 1d-3-F-1,2,4,5-InsP4 potent 1d-1,4,5-InsP3-like calcium mobilizing analogues” (Bioorg Med Chem Lett, 1995).

Assays:
[1] = Inhibitory concentration required to displace [3H]insP3 from Inositol 1,4,5-trisphosphate receptor of bovine adrenal cortex membranes; format: tissue-based
[2] = Effective concentration required for Calcium release via the intracellular InsP3 receptor of SH-SY5Y cells; format: functional, cell-based; conditions: Homo sapiens

IC50 [1] [nM] | EC50 [2] [nM] | Compound
5.5 | 51.6 | O=P(O)(O)O[C@@H]1[C@H](O)[C@H](O)[C@@H](OP(=O)(O)O)[C@H](OP(=O)(O)O)[C@H]1O [INS(1,4,5)P3]
9.7 | 100 | O=P(O)(O)OC1C(O)C(OP(=O)(O)O)C(OP(=O)(O)O)C(F)C1OP(=O)(O)O (stereo unspecified)
269 | 5420 | O=P(O)(O)OC1C(O)C(O)C(OP(=O)(O)O)C(OP(=O)(O)O)C1F (stereo unspecified)
